# Counter-ions that a name gives are not always drawn.
# Experiments:
# [1] = tested on: Alternaria asthma mouse model; experiment: Alternaria asthma mouse model: cell counts and cytokines in BALF; format: in vivo; conditions: for total cell counts in BALF: 30 and 100 mg/kg once daily for 7 days subcutaneous, vs vehicle P<0.05
# Method: The effect of Compound 17 was studied in an Alternaria asthma mouse model. On days 1-5, male Balb/c mice under isoflurane anesthesia were challenged by instilling solution of 5 μg (protein weight) Alternaria in 40 μL of PBS into each nostril. Compound 17 was administered two days prior to Alternaria challenge (defined day as day −1) and animals were treated with vehicle (10% DMSO/45% PEG-400/45% ‘20% HP-3-CD’ in water) or Compound 17 (30 and 100 mg/kg) once daily for 7 days (defined as day −1 to day 5) by subcutaneous injection. Total and differential cell counts of the BALF fluid samples were measured using a XT-2000iV analyzer (Sysmex). Cytokine concentrations of BALF supernatant were measured in samples from all groups using ELISA kit (Biotechne, UK). Statistical significance is calculated using one-way ANOVA followed by Dunnett's post-tests in which the treatment groups were compared to vehicle control (P<0.05).
# [2] = target: T1, catalytic domain of human PARP14 (residues 1611 to 1801) with NanoLuc tag (Homo sapiens, UniProt Q460N5); experiment: NanoLuc assay for the degradation of PARP14; format: cell-based; conditions: Assay A; NanoLuc-PARP14 overexpressed in HEK-293T cells; 2 hours at 37 degrees; luminescence
# T1 construct: expressed in transfected cells; host or cells: HEK-293T cells (ATCC), plasmid pRTX240 in pcDNA3.1(-)
# T1 sequence (Q460N5 1611-1801): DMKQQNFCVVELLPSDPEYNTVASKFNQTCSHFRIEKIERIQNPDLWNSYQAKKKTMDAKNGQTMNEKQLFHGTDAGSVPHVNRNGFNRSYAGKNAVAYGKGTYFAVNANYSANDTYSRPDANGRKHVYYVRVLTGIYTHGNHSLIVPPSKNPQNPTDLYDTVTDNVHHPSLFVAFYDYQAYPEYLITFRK
# How it was run: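 HEK-293T cells transiently transfected 24 hrs with N-terminal NanoLuc-tagged human PARP14 catalytic domain (residues 1611-1801), then exposed to compound dose response for 2 hours at 37 degrees. NanoGlo luminescence expressed as % of 0.1% DMSO wells; DC50 from floating 4-parameter fit, reported as banded ranges.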
# PARP14 = target: T2, PARP14 (Homo sapiens, UniProt Q460N5); experiment: HiBiT assay for the degradation of PARP14 (HiBiT tagged PARP14 in LgBiT expressing Jurkat cells); format: cell-based; conditions: Assay B, 37° C. for 2 or 24 hours, luminescence, read-out: DC50
# T2 construct: engineered to contain a HiBiT tag on both alleles of the PARP14 gene; endogenous in cells; host or cells: Jurkat cells stably expressing LgBiT (Promega), with CRISPR/Cas9 knock-in of HiBiT at the PARP14 locus
# Method: Jurkat cells stably transfected with LgBiT (Promega) were engineered to contain a HiBiT tag on both alleles of the PARP14 gene (Genbank Accession Number: NM_017554) via CRISPR/Cas9 editing. The HiBiT tag is an 11 amino acid tag created by Promega that associates with LgBiT protein to form the NanoLuc® tag on the C-terminus of PARP14. Clones were isolated and confirmed for the HiBiT tag via Sanger sequencing.
# Degradation of PARP14 protein was assessed by measuring the luminescence of the HiBiT tag associating with the LgBiT protein as a proxy for the PARP14 protein. Jurkat cells were diluted to 250,000 cells per mL and then added to assay plate (Corning 3574) using a Multidrop (Thermo Fisher) to add 20 μL per well of the 384 well plate, resulting in 5,000 cells per well. 20 nL of a dose response curve diluted in DMSO of each test compound was added to the cell plate using a Mosquito (TTP Labtech) and the plate was incubated at 37° C. for 2 or 24 hours. Assay plate was brought to room temperature then 5 μL per well of Live Cell Substrate (Promega) was added to the plate. Luminescence was measured on an Envision (Perkin Elmer).
# The average DMSO was calculated from 32 wells containing 0.1% DMSO only in columns 12 and 24 of the assay plate. The % of DMSO values were calculated as described below: […]
# The % of DMSO values were plotted as a function of compound concentration and the following 4-parameter fit was applied to derive the DC50 values:
# where top, bottom, and Hill Coefficient are allowed to float. Y is the % of DMSO and X is the compound concentration.
# DC50 data for the Example compounds is provided below in Table 2 (“+” is <0.03 μM; “++” is ≥0.03 μM).
# [3] = male Balb/c mice, Alternaria challenge, 30 and 100 mg/kg once daily 7 days s.c., dose-dependent starting from 30 mg/kg
# T2 sequence (Q460N5 whole entry): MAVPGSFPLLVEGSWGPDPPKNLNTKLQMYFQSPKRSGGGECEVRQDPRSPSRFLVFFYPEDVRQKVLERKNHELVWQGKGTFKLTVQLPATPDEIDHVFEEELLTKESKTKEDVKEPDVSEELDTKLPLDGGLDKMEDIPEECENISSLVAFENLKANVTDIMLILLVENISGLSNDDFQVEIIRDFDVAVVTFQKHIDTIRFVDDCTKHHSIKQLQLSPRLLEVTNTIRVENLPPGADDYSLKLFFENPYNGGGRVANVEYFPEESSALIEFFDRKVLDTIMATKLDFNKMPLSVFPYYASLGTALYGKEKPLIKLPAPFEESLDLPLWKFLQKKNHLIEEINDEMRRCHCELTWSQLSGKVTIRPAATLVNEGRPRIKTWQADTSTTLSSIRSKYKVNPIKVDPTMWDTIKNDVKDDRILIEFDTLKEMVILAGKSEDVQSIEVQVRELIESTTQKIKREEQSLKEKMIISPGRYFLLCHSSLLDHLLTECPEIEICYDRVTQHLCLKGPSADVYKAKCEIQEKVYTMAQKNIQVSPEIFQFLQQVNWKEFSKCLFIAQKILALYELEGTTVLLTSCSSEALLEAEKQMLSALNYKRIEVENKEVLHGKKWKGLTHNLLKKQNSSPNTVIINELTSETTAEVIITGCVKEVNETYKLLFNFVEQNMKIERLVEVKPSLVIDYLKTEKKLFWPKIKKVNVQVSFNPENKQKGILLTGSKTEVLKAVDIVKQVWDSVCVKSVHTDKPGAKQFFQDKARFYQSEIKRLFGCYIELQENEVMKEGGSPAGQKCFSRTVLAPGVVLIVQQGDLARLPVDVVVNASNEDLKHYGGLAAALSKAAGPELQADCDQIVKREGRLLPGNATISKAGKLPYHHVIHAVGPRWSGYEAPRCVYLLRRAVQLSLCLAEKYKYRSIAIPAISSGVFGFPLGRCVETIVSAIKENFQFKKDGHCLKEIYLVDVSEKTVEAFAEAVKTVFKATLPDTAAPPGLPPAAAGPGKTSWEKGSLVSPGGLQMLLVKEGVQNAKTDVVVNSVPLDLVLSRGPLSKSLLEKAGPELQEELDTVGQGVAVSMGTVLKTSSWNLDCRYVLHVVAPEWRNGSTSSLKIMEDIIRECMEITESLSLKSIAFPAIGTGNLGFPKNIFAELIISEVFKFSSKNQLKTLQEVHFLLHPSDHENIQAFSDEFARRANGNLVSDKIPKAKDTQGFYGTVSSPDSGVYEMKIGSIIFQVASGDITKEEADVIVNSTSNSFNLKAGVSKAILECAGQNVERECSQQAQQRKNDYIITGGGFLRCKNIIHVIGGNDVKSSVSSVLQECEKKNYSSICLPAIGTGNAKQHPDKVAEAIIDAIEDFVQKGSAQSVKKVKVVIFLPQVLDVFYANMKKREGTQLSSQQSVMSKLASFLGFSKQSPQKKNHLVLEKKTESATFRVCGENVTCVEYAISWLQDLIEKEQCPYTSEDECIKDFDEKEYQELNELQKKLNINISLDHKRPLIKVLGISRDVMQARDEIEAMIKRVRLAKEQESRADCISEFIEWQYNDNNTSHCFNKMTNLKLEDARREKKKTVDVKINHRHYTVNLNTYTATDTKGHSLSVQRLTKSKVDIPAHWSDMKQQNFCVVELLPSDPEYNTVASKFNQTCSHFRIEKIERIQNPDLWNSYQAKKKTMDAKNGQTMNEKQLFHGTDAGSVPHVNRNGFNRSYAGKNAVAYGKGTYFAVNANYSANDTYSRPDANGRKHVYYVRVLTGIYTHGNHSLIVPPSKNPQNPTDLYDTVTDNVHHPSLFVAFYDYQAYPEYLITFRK
Compound,"eosinophil in BALF ([1]; FIG. 2A legend, dose-dependent starting from 100 mg/kg)","cytokine IL-33 in BALF ([1]; FIG. 2B legend, dose-dependent starting from 100 mg/kg)","cytokine IL-4 in BALF ([1]; FIG. 2C legend, dose-dependent starting from 100 mg/kg)","cytokine IL-5 in BALF ([1]; FIG. 2D legend, dose-dependent starting from 100 mg/kg)","cytokine IL-4 in BALF [1, 3]","cytokine IL-5 in BALF [1, 3]","cytokine IL-33 in BALF [1, 3]","eosinophils in BALF [1, 3]","total cell counts in BALF ([1]; male Balb/c mice, Alternaria challenge, dose-dependent starting from 30 mg/kg)","total cell counts in BALF ([1]; male Balb/c mice, Alternaria challenge, dose-dependent starting from 30 mg/kg, listed as Compound 17)",DC50 [2] [µM],DC50 (PARP14) [µM]
"O=C1CCC(Nc2ccc(C3CCN(CC4CCN(C(=O)CN5CCC(SCc6nc7cc(OCC8CCOCC8)cc(F)c7c(=O)[nH]6)CC5)CC4)CC3)cc2)C(=O)N1 (stereo not drawn) [Example 17, 3-((4-(1-((1-(2-(4-(((5-fluoro-4-oxo-7-((tetrahydro-2H-pyran-4-yl)methoxy)-3,4-dihydroquinazolin-2-yl)methyl)thio)piperidin-1-yl)acetyl)piperidin-4-yl)methyl)piperidin-4-yl)phenyl)amino)piperidine-2,6-dione]",significantly reduces,significantly reduces,significantly reduces,significantly reduces,significantly reduces,significantly reduces,significantly reduces,significantly reduces,dose-dependent reduction,significantly reduces,< 0.1,
"O=C1CCC(Nc2ccc(N3CCC(N4CCC(SCc5nc6cc(C#CC7CC7)cc(F)c6c(=O)[nH]5)CC4)CC3)c(F)c2)C(=O)N1 (stereo not drawn) [Example 67, 3-((4-(4-(((7-(cyclopropylethynyl)-5-fluoro-4-oxo-3,4-dihydroquinazolin-2-yl)methyl)thio)-[1,4′-bipiperidin]-1′-yl)-3-fluorophenyl)amino)piperidine-2,6-dione formate]",,,,,,,,,,,,< 0.03
